Source: patent US20250221988A1 (Cullgen (Shanghai), Inc., priority 2022, published 2025)
Read-outs that look alike come from different tables or passages of the source.

Key:
MOLM-13 cells = assay: Cell viability assay (CellTiter-Glo) in MOLM-13 cells; type: cell-based; conditions: MOLM-13 cells, three days
MV4;11 cells = assay: Cell viability assay (CellTiter-Glo) in MV4;11 cells; type: cell-based; conditions: MV4;11 cells, three days, read-out: MV4
How it was run: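 5000 cells/well in RPMI 1640 or DMEM with 10% FBS, treated with 8- or 12-point 3-fold compound dilutions, with or without gilteritinib (10 nM for MV4;11, 20 nM for MOLM-13). Viability by CellTiter-Glo after three days; IC50 by nonlinear least-squares regression.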

[1] = Homo sapiens, 72 h, compound alone, read-out: MOLM-13 IC50
[2] = Homo sapiens, MV4-11, 72 h, compound alone, 11 IC50
[3] = with gilteritinib, read-out: MOLM-13 IC50 (nM) + 10 nM Gil
[4] = with 10 nM gilteritinib, 11 IC50 (nM) + 10 nM Gil

SMILES	IC50 (MOLM-13 cells; [1]) [nM]	IC50 (MV4;11 cells; [2]) [nM]	IC50 (MOLM-13 cells; [3]) [nM]	IC50 (MV4;11 cells; [4]) [nM]
Nc1ccnc2c1c(C1CC1)nn2[C@H]1C[C@H](CNc2ccc3c(c2)C(=O)N(C2CCC(=O)NC2=O)C3=O)C1 (stereo partly drawn) [GS-762, 5-(((Trans-3-(4-amino-3-cyclopropyl-1H-pyrazolo[3,4-b]pyridin-1-yl)cyclobutyl)methyl)amino)-2-(2,6-dioxopiperidin-3-yl)isoindoline-1,3-dione]	> 1000	> 1000	–	–
O=C1CCC(N2C(=O)c3ccc(NC[C@H]4C[C@H](n5cc(-c6cc7c(cn6)cnn7C6CC(O)C6)c(C6CC6)n5)C4)cc3C2=O)C(=O)N1 (stereo partly drawn) [GS-763, 5-(((Trans-3-(3-cyclopropyl-4-(1-(3-hydroxycyclobutyl)-1H-pyrazolo[4,3-c]pyridin-6-yl)-1H-pyrazol-1-yl)cyclobutyl)methyl)amino)-2-(2,6-dioxopiperidin-3-yl)isoindoline-1,3-dione]	10 to 100	10 to 100	< 10	< 10
O=C1CCC(N2C(=O)c3ccc(NC[C@H]4C[C@H](n5cc(-c6cnc7ccc(C8CC(O)C8)cc7n6)c(C6CC6)n5)C4)cc3C2=O)C(=O)N1 (stereo partly drawn) [GS-764, 5-(((Trans-3-(3-cyclopropyl-4-(7-(3-hydroxycyclobutyl)quinoxalin-2-yl)-1H-pyrazol-1-yl)cyclobutyl)methyl)amino)-2-(2,6-dioxopiperidin-3-yl)isoindoline-1,3-dione]	< 10	< 10	< 10	< 10
O=C1CCC(N2C(=O)c3ccc(NC[C@H]4C[C@H](n5nc(C6CC6)c6cccc(N7CCNCC7)c65)C4)cc3C2=O)C(=O)N1 (stereo partly drawn) [GS-765, 5-(((Trans-3-(3-cyclopropyl-7-(piperazin-1-yl)-1H-indazol-1-yl)cyclobutyl)methyl)amino)-2-(2,6-dioxopiperidin-3-yl)isoindoline-1,3-dione]	> 1000	> 1000	100 to 1000	100 to 1000

Results, then the compound that gave them:

IC50 (MOLM-13 cells; [1]) [nM]	IC50 (MV4;11 cells; [2]) [nM]	IC50 (MOLM-13 cells; [3]) [nM]	IC50 (MV4;11 cells; [4]) [nM]	SMILES
< 10	< 10	< 10	< 10	Cn1ncc2cnc(-c3cn([C@H]4C[C@H](CCc5ccc6c(c5)CN([C@@H]5CCC(=O)NC5=O)C6=O)C4)nc3C3CC3)cc21 [GS-766, 3-(5-(2-(Trans-3-(3-cyclopropyl-4-(1-methyl-1H-pyrazolo[4,3-c]pyridin-6-yl)-1H-pyrazol-1-yl)cyclobutyl)ethyl)-1-oxoisoindolin-2-yl)piperidine-2,6-dione]
100 to 1000	100 to 1000	10 to 100	10 to 100	Cn1ncc2cnc(-c3cn([C@H]4C[C@H](CCc5ccc6c(c5)C(=O)N(C5CCC(=O)NC5=O)C6=O)C4)nc3C3CC3)cc21 (stereo partly drawn) [GS-767, 5-(2-(Trans-3-(3-cyclopropyl-4-(1-methyl-1H-pyrazolo[4,3-c]pyridin-6-yl)-1H-pyrazol-1-yl)cyclobutyl)ethyl)-2-(2,6-dioxopiperidin-3-yl)isoindoline-1,3-dione]
< 10	< 10	< 10	< 10	Cn1ccc2c(-c3cn([C@H]4C[C@H](CNc5ccc6c(c5)C(=O)N(C5CCC(=O)NC5=O)C6=O)C4)nc3C3CC3)ncc(F)c21 (stereo partly drawn) [GS-768, 5-(((Trans-3-(3-cyclopropyl-4-(7-fluoro-1-methyl-1H-pyrrolo[3,2-c]pyridin-4-yl)-1H-pyrazol-1-yl)cyclobutyl)methyl)amino)-2-(2,6-dioxopiperidin-3-yl)isoindoline-1,3-dione]
< 10	< 10	< 10	< 10	CC(C)n1ccc2c(-c3cn([C@H]4C[C@H](CNc5ccc6c(c5)C(=O)N(C5CCC(=O)NC5=O)C6=O)C4)nc3C3CC3)ncc(F)c21 (stereo partly drawn) [GS-769, 5-(((Trans-3-(3-cyclopropyl-4-(7-fluoro-1-isopropyl-1H-pyrrolo[3,2-c]pyridin-4-yl)-1H-pyrazol-1-yl)cyclobutyl)methyl)amino)-2-(2,6-dioxopiperidin-3-yl)isoindoline-1,3-dione]
